Consider twelve compounds from patent US20040038883A1, “Peptide inhibitors of Akt and uses thereof” (priority 2002, published 2004).

One assay addresses Akt. Nature of the assay: Ki. How it is done: Table printed on a drawing sheet, FIG.8
The patent's description of the figure: FIG. 8 represents the minimal length requirement for the peptide inhibitors. Different lengths of peptide inhibitor 2 were synthesized. For some of them, an acetyl group was added to the amino terminal end to increase the stability for cellular assays. These peptides were tested in the Akt assay described herein.
First copying reader's note: Ki values are for length variants of peptide inhibitor 2 tested in the Akt assay; the unit (μM) stands in the cells.
Where the first naming reader finds the target: description_of_the_figure: These peptides were tested in the Akt assay described herein.

For the next assay, the system named is SGK. Nature of the assay: kinase selectivity assay, SGK. Format: biochemical. An excerpt:
Enzymes: Akt1 was expressed and purified using a baculoviral system. PKA was purchased from Panvera. CDC2, […] and PKC gamma were purchased from Calbiochem, and SGK and Src were purchased from Upstate Biotechnology (Charlottesvilee, Va.).
Substrates: All substrates were custom synthesized by Genemed Synthesis, Inc. (San Francisco, Calif.) except the Src substrate, which was purchased from Promega (cat#V6480). The substrates had the general structure of Biotin-Ahx-peptide. The Akt assay used […]. The PKA assay used kemptide LRRASLG. The CDC2 assay used PKTPKKAKKL. The SGK assay used RPRAATF. The PKC delta and gamma used neurogranin ERMRPRKRQGSVRRRV. Phosphotidylserine and dioleyl-sn-glycerol were purchased from Avanti Polar Lipids (Alabaster, Ala.). Strepavidin Flash Plates were purchased from Perkin Elmer Life Sciences (Boston, Mass.).
Turning to the kinase selectivity assays, all the enzymes other than Akt were tested in 25 mM Hepes buffer pH 7.4, 10 mM MgCl2, 0.1 mM Na3VO4, 0.5 mM DTT and 0.075 mg/ml Triton X-100. […] Reactions were transferred to Flash Plates, vortexed and incubated at room temperature for 10 min, then washed 3 times with phosphate buffered saline with 0.05% Tween 20 and counted on a TopCount Packard Instruments gamma counter (Packard Instruments, Boston, Mass.). IC50s were calculated using the Assay Explorer software, sigmoidal curve fit by MDL.

For another assay, the target named is T1, Akt1 (Homo sapiens, UniProt P31749).
T1 construct: made in house; host or cells: baculovirus / insect cells
T1 sequence (P31749 whole entry): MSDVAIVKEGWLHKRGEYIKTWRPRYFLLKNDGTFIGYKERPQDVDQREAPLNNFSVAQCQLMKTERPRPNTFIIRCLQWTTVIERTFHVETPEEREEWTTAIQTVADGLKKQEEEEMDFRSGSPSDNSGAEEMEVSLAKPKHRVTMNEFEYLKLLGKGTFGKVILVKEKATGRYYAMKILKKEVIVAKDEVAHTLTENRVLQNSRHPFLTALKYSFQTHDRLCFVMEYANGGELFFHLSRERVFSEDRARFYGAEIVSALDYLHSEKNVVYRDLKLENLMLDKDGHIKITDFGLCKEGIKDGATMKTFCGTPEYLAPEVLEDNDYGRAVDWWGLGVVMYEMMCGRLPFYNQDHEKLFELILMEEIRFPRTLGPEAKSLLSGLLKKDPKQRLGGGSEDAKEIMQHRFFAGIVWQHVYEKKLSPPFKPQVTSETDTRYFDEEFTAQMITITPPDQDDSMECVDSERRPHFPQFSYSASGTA
Nature of the assay: in vitro Akt1 kinase assay with biotinylated Bad-derived peptide substrate. The assay is classed as biochemical. The following applies: FIG. 3.

Another assay addresses mouse Akt1 (Mus musculus, UniProt P31750). The following applies: mouse Akt1, J. Biol. Chem. 275:36108-36115 (2000); cited from earlier work.
Assay [1] relates to Akt1-FL (full-length Akt1). Nature of the assay: IC50 (Akt1-FL*). How it is done: Table printed on a drawing sheet, FIG.3B
Head of the field: IC50 (Akt1-FL*)
Footnotes: *FL: FULL-LENGTH
The patent's description of the figure: FIG. 3: FIG. 3A illustrates Akt1 inhibition by the five Akt1 peptide inhibitors. FIG. 3B illustrates the IC50 of the five peptide inhibitors.
First copying reader's note: For peptide 5 the sheet prints a percent value at 128μM in place of an IC50.
Where the first naming reader finds the target: head: IC50 (Akt1-FL*)

No end group written: not given here.

Broadly, the Ki is the equilibrium dissociation constant of an inhibitor or competing ligand from its target. By IC50 is commonly meant the midpoint of a concentration-inhibition curve. A higher IC50 goes with weaker potency in that assay.

Sequence of mouse Akt1 (P31750 whole entry): as the sequence (P31749 whole entry) above, with S2N, A50S, T100A, K112R, E117T, K389T, G410N, H415D counted along it

At Akt, Ac-RARERTYAFGH displayed an inhibitory constant (Ki) of 15900 nM.
For the compound `CC(C)C[C@H](NC(=O)[C@H](CCC(=O)O)NC(=O)[C@@H](N)C(C)C)C(=O)N[C@@H](CC(=O)O)C(=O)N1CCC[C@H]1C(=O)N[C@@H](CCC(=O)O)C(=O)N[C@@H](Cc1ccccc1)C(=O)N[C@@H](CCC(=O)O)C(=O)N1CCC[C@H]1C(=O)N[C@@H](CCCNC(=N)N)C(=O)N[C@@H](C)C(=O)N[C@@H](CCCNC(=N)N)C(=O)N[C@@H](CCC(=O)O)C(=O)N[C@@H](CCCNC(=N)N)C(=O)N[C@H](C(=O)N[C@@H](Cc1ccc(O)cc1)C(=O)N[C@@H](CO)C(=O)N[C@@H](Cc1ccccc1)C(=O)NCC(=O)N[C@@H](Cc1c[nH]cn1)C(=O)O)[C@@H](C)O` [Peptide 1], the “inhibition on SGK (in words)” value in the assay with SGK was “inhibition was observed”. The inhibition constant (Ki) at SGK (highest concentration tested 50 μM, 10 μM ATP) came to 1000 nM. In addition, at Akt1, the “relative potency of Akt1 inhibition (in words)” value is “most potent inhibitor against Akt1”.
As to ARKRERTYSFGHHA [AKTide-2T], at mouse Akt1, the inhibitory constant (Ki) is 12000 nM.
In the case of Ac-FEPRARERTYAFGH, at Akt, the inhibition constant (Ki) stood at 1440 nM.
As for VELDPEFEPRARER T Y D F GH [3:], half-maximal inhibition in assay [1] (IC50) was put at 10600 nM.
Still for that read-out and setting: the same measure for VELDPEFEPRARER T Y A F GH [2:]: 280 nM.
At Akt, Ac-DPEFEPRARERTYAFGH gave a Ki of 260 nM.
Still for that read-out and setting: the same measure for Ac-ERTYAFGH: above 100000 nM.
VELDPEFEPRARER A Y A F GH [4:] showed an IC50 in assay [1] of 210 nM.
With FEPRARERTYAFGH, at Akt, affinity was put at a Ki of 1970 nM.
Take “5: peptide 2 with threonine at position 15 mutated to Asp (VELDPEFEPRARERDYAFGH; Variant of the wildtype Akt Sequence) [Peptide 5]”: in the assay with Akt1, the “relative potency of Akt1 inhibition (in words)” value was “least potent inhibitor”.
As for VELDPEFEPRARER T Y S F GH [1:], half-maximal inhibition in assay [1] (IC50) required 490 nM. This lies in the sub-micromolar range.
